These results are taken from patent US20120053218A1, “TRIAZOLE DERIVATIVES AS VASOPRESSIN-RECEPTOR INHIBITORS FOR TREATING CARDIAC INSUFFICIENCY” (BAYER PHARMA AKTIENGESELLSCHAFT, priority 2009, published 2012).

Test [1] addresses T1, human V2 receptor (Homo sapiens, UniProt P30518).
T1 construct: expressed in transfected cells; host or cells: CHO K1 (ATCC), constitutively expressing modified aequorin and co-transfected with Gα16
Put plainly: Cellular in vitro assay for vasopressin receptor activity (aequorin luminescence, CHO K1 cells), hV2. In kind it is cell-based. To be noted: CHO cell line transfected with human V2 receptor and Gα16, agonist [Arg8]-vasopressin. An excerpt:
(§1) The identification of agonists and antagonists of the V1a and V2 vasopressin receptors from humans and rats and also the quantification of the activity of the substances described here took place using recombinant cell lines. These cells derive originally from a hamster ovary epithelial cell (Chinese Hamster Ovary, CHO K1, ATCC: American Type Culture Collection, Manassas, Va. 20108, USA). The test cell lines constitutively express a modified form of the calcium-sensitive photoprotein aequorin, which, after reconstitution with the cofactor coelenterazine, emits light when there are increases in the free calcium concentration (Rizzuto R., Simpson A. W., Brini M., Pozzan T.; Nature 358 (1992) 325-327). In addition, the cells are stably transfected with the human or rat V1a or V2 receptors. In the case of the Gs-coupling V2 receptors, the cells are stably transfected with a further gene, which codes for the promiscuous Gα16 protein (Amatruda T. T., Steele D. A., Slepak V. Z., Simon M. I., Proc. Nat. Acad. Sci. USA 88 (1991), 5587-5591), either independently or as a fusion gene. The resulting vasopressin receptor test cells react to stimulation of the recombinantly expressed vasopressin receptors by intracellular release of calcium ions, which can be quantified by the resulting aequorin luminescence using a suitable luminometer (Milligan G., Marshall F., Rees S., Trends in Pharmaco. Sci. 17 (1996) 235-237).
(§2) Test procedure: On the day before the assay, the cells are plated out in culture medium (DMEM, 10% FCS, 2 mM glutamine, 10 mM HEPES) in 384-well microtiter plates and kept in a cell incubator (96% humidity, 5% v/v carbon dioxide, 37° C.). On the day of the assay, the culture medium is replaced by a Tyrode solution (140 mM sodium chloride, 5 mM potassium chloride, 1 mM magnesium chloride, 2 mM calcium chloride, 20 mM glucose, 20 mM HEPES), which additionally contains the cofactor coelenterazine (50 μM), and the microtiter plate is then incubated for a further 3-4 hours. The test substances in various concentrations are placed for 10 to 20 minutes in the wells of the microtiter plate before the agonist [Arg8]-vasopressin is added, and the resulting light signal is measured immediately in the luminometer. The IC50 values are calculated using the GraphPad PRISM computer program (Version 3.02).
(§3) The table below lists representative IC50 values for the compounds of the invention on the cell line transfected with the human V1a or V2 receptor: […]

For test [2], the target named is T2, human V1a receptor (Homo sapiens, UniProt P37288).
T2 construct: expressed in transfected cells; host or cells: CHO K1 (ATCC), constitutively expressing modified aequorin
Put plainly: Cellular in vitro assay for vasopressin receptor activity (aequorin luminescence, CHO K1 cells), hV1a. In kind it is cell-based. Particulars: CHO cell line transfected with human V1a receptor, agonist [Arg8]-vasopressin.
From the text: as §1, §2, §3

Usually IC50 stands for the concentration at which inhibition is half-maximal. Low values mean inhibition by little substance, high ones a need for much substance.

Molecules are shown by their SMILES.

T1 sequence (P30518 whole entry): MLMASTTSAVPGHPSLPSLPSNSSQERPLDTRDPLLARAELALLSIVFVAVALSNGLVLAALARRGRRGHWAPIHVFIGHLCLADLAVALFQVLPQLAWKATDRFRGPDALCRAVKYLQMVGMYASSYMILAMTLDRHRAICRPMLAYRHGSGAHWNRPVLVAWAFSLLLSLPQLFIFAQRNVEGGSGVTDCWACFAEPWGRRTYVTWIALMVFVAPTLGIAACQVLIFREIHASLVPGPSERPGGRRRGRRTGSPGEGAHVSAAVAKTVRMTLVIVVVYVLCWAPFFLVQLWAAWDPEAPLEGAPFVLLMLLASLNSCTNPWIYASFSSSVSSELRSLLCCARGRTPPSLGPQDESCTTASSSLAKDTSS
T2 sequence (P37288 whole entry): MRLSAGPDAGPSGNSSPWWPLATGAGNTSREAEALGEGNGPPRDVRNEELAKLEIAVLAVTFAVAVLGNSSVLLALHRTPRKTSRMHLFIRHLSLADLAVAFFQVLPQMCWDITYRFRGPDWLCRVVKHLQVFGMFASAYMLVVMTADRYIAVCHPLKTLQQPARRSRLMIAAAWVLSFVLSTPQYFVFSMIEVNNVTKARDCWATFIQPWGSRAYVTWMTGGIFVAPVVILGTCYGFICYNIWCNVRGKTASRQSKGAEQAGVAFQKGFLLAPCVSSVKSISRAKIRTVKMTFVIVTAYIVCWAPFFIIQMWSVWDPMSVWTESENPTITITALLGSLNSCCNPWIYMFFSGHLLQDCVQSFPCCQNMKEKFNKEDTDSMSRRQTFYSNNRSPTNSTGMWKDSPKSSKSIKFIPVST

Regarding `CC(NC(=O)Cn1nc(-c2ccc(Cl)cc2)n(C[C@H](O)C(F)(F)F)c1=O)(C(=O)O)c1cccc(C(F)(F)F)c1` (stereo partly drawn) [Example 1, 2-[({3-(4-Chlorophenyl)-5-oxo-4-[(2S)-3,3,3-trifluoro-2-hydroxypropyl]-4,5-dihydro-1H-1,2,4-triazol-1-yl}acetyl)amino]-2-[3-(trifluoromethyl)phenyl]propanoic acid], the IC50 in test [1] was 12 nM; in test [2], 118 nM.
The like results for `C[C@](NC(=O)Cn1nc(-c2ccc(Cl)cc2)n(C[C@H](O)C(F)(F)F)c1=O)(C(N)=O)c1ccccc1Cl` [Example 17, (2R)-2-(2-Chlorophenyl)-2-[({3-(4-chlorophenyl)-5-oxo-4-[(2S)-3,3,3-trifluoro-2-hydroxypropyl]-4,5-dihydro-1H-1,2,4-triazol-1-yl}acetyl)amino]propanamide] were, in that order, 220 nM and 12 nM.
With `CC(NC(=O)Cn1nc(-c2ccc(Cl)cc2)n(Cc2ccccc2F)c1=O)(C(N)=O)c1cccc(C(F)(F)F)c1` (single isomer, unassigned) [Example 25, 2-({[3-(4-Chlorophenyl)-4-(2-fluorobenzyl)-5-oxo-4,5-dihydro-1H-1,2,4-triazol-1-yl]acetyl}amino)-2-[3-(trifluoromethyl)phenyl]propanamide], the 50% inhibitory concentration (IC50) was found to be 16 nM in test [1] and 6 nM in test [2].
The like results for `C[C@](NC(=O)Cn1nc(-c2ccc(Cl)cc2)n(/C=C/C(F)(F)F)c1=O)(C(N)=O)c1cccc(C(F)(F)F)c1` [Example 19, (2R)-2-[({3-(4-Chlorophenyl)-5-oxo-4-[(1E)-3,3,3-trifluoroprop-1-en-1-yl]-4,5-dihydro-1H-1,2,4-triazol-1-yl}acetyl)amino]-2-[3-(trifluoromethyl)phenyl]propanamide] were, in that order, 14 nM and 13 nM.
The like results for `C[C@@](NC(=O)Cn1nc(-c2ccc(Cl)cc2)n(C[C@H](O)C(F)(F)F)c1=O)(C(N)=O)c1cccc(C(F)(F)F)c1` [Example 3, (2S)-2-[({3-(4-Chlorophenyl)-5-oxo-4-[(2S)-3,3,3-trifluoro-2-hydroxypropyl]-4,5-dihydro-1H-1,2,4-triazol-1-yl}acetyl)amino]-2-[3-(trifluoromethyl)phenyl]propanamide] were, in that order, 28 nM and 106 nM.
The like results for `C[C@](NC(=O)Cn1nc(-c2ccc(Cl)cc2)n(C[C@H](O)C(F)(F)F)c1=O)(C(N)=O)c1cccc(C(F)(F)F)c1` [Example 4, (2R)-2-[({3-(4-Chlorophenyl)-5-oxo-4-[(2S)-3,3,3-trifluoro-2-hydroxypropyl]-4,5-dihydro-1H-1,2,4-triazol-1-yl}acetyl)amino]-2-[3-(trifluoromethyl)phenyl]propanamide] were, in that order, 3.7 nM and 2.2 nM.
Turning to `CCC(NC(=O)Cn1nc(-c2ccc(Cl)cc2)n(C[C@H](O)C(F)(F)F)c1=O)(C(N)=O)c1cccc(C(F)(F)F)c1` (single isomer, unassigned) [Example 14], the IC50 in test [1] came to 6.4 nM; in test [2] it was 6 nM.
